For 45 molecules, EC50 results are on record in BindingDB's records for doi:10.7270/Q2TX3CTT (Broad Institute, 2010).

Where a name gives a salt, the structure may show the parent alone. A value given as a limit tells only on which side of the number the result lay.

Sequence of Glycogen synthase kinase-3 beta (P49841 whole entry): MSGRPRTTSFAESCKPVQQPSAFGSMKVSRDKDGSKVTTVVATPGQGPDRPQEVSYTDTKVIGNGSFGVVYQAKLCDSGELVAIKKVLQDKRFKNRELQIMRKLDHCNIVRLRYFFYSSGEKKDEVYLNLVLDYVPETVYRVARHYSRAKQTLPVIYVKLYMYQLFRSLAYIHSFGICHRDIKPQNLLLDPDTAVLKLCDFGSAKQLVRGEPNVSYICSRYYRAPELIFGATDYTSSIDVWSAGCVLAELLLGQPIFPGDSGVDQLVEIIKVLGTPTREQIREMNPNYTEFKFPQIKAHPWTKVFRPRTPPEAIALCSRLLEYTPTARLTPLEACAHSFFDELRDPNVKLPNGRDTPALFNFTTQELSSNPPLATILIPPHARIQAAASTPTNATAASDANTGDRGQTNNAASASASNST

This assay concerns the target Glycogen synthase kinase-3 beta (Homo sapiens, UniProt P49841). In words: GSK3beta kinase inhibitor potency, dose response, biochemical, luminescence, cell-free homogeneous, retest (AID 434954).
With `Cc1ccnc(NC(=O)c2ccccc2[N+](=O)[O-])c1` [N-(4-methylpyridin-2-yl)-2-nitro-benzamide], the EC50 is > 300 µM.
With `O=C(Cc1ccc(F)cc1)NN=Cc1ccc(-c2ccc(Cl)c(C(=O)O)c2)o1`, the concentration for a half-maximal effect (EC50) is > 300 µM.
For the molecule `O=NCc1ccc(Oc2cccc(Cl)c2)c([N+](=O)[O-])c1` [MLS000694755], the EC50 stood at 38.2 µM.
For the molecule `O=C1NC(=Nc2ccccc2)SC1=Cc1ccccc1` [5-Benzylidene-2-phenylimino-thiazolidin-4-one], the concentration giving a half-maximal response (EC50) is > 300 µM.
As for `NC(=O)CN(c1ccc([N+](=O)[O-])cc1)S(=O)(=O)c1ccccc1` [2-[N-(benzenesulfonyl)-4-nitroanilino]acetamide], the figure is > 300 µM.
With `COc1ccccc1-n1c(S)nnc1-c1ccco1` [MLS001214684], the EC50 was > 300 µM.
In turn, `COc1ccc(CNC(=O)CN(Cc2cccs2)C(=O)CCC(=O)Nc2ccccn2)cc1` [MLS000687650] had an EC50 of 13.4 µM.
Molecule `COc1ccc(Nc2nc(N)c([N+](=O)[O-])c(NCc3ccccc3)n2)cc1` [MLS000332775] yielded an EC50 of 10.1 µM.
For `CCN1CCc2c(sc(NC(=O)CN3C(=O)c4ccccc4C3=O)c2C(N)=O)C1` [2-[2-[1,3-bis(oxidanylidene)isoindol-2-yl]ethanoylamino]-6-ethyl-5,7-dihydro-4H-thieno[2,3-c]pyridine-3-carboxamide;hydrochloride], the 50% effective concentration (EC50) is > 300 µM.
On to `c1ccc(-c2nc(NCc3cccnc3)c3ccccc3n2)cc1`, for which the EC50 was > 300 µM.
With `CCCN(CCC)Cc1c(C(=O)NN=Cc2ccc(Br)cc2)nnn1-c1nonc1N` [1-(4-azanyl-1,2,5-oxadiazol-3-yl)-N-[(4-bromophenyl)methylideneamino]-5-[(dipropylamino)methyl]-1,2,3-triazole-4-carboxamide], the concentration for a half-maximal effect (EC50) is > 300 µM.
On to `c1ccc(CN=Nc2nccc(-c3cccnc3)n2)cc1`, for which the EC50 was found to be 16.9 µM.
As to `CCOC(=O)C1CCN(CC(O)COC(CC)c2ccccc2)CC1` (stereo not given) [ethyl 1-[2-oxidanyl-3-(1-phenylpropoxy)propyl]piperidine-4-carboxylate;hydrochloride], the concentration giving a half-maximal response (EC50) was > 300 µM.
In turn, `Oc1ccc(CN=Nc2ncc(Br)cn2)c(O)c1` had a concentration for a half-maximal effect (EC50) of 12.3 µM. This counts as double-digit micromolar.
Then `OCCCNc1cc(-c2ccnc(Nc3cccc(Cl)c3)n2)ccn1`, with 0.212 µM; and `O=C1NC(c2cccnc2)Nc2sc3c(c21)CCCC3` (stereo not given) [SMR000114421], with > 300 µM; and `CC[n+]1c(/C=C/N(C)c2ccccc2)sc2ccc(Cl)cc21` [N-[(E)-2-(5-chloro-3-ethyl-1,3-benzothiazol-3-ium-2-yl)ethenyl]-N-methylaniline;perchlorate], with 49.8 µM.
For the molecule `C=CCN(c1ccc(C(=O)Nc2ccc(C)c(C)c2)cc1)S(C)(=O)=O` [N-(3,4-dimethylphenyl)-4-[methylsulfonyl(prop-2-enyl)amino]benzamide], the EC50 is > 300 µM.
`Cn1c(=O)c2[nH]c(CN3CCN(Cc4ccccc4)CC3)nc2n(C)c1=O` [SMR000120891]: the half-maximal effective concentration (EC50) was > 300 µM.
In turn, `COc1ccccc1Nc1nc(NCCO)nc(N)c1[N+](=O)[O-]` registered a concentration for a half-maximal effect (EC50) of 87.6 µM.
Consider `COc1ccc2c(c1)cc1c(=O)n(CC(=O)NCCCN3CCOCC3)nc(C)n12` [SMR000624522], for which the EC50 is > 300 µM.
Take `COc1cccc(NC(=O)CN(C2=NC3CS(=O)(=O)CC3S2)c2cccc(C)c2)c1` (stereo not given) [MLS001110132]: the EC50 was > 300 µM.
Turning to `Cc1ccc(-c2oc3ccccc3c(=O)c2O)cc1` [MLS000114653], the EC50 was > 300 µM.
Take `O=C(CCc1ccccc1)Nc1cccc([N+](=O)[O-])c1` [MLS000856399]: the EC50 was > 300 µM.
With `CC(C)=CCc1c(O)cc2c(c1O)C(=O)CC(c1ccc(O)cc1)O2` (stereo not given) [2-(4-hydroxyphenyl)-6-(3-methylbut-2-enyl)-5,7-bis(oxidanyl)-2,3-dihydrochromen-4-one], the EC50 is > 300 µM.
For `CC(C)(C)c1ccc(OCC(=O)NCCN2CCCC2)cc1` [2-(4-tert-butylphenoxy)-N-(2-pyrrolidin-1-ylethyl)ethanamide;hydrochloride], the EC50 is > 300 µM.
For the molecule `CCN1CCN(c2ccc(S(=O)(=O)N3CCOCC3)cc2NC(=O)c2ccc(Cl)cc2Cl)CC1` [2,4-bis(chloranyl)-N-[2-(4-ethylpiperazin-1-yl)-5-morpholin-4-ylsulfonyl-phenyl]benzamide], the concentration giving a half-maximal response (EC50) is > 300 µM.
The molecule `O=c1cc(-c2ccccc2Cl)oc2cc(O)cc(O)c12` [2-(2-chlorophenyl)-5,7-dihydroxychromen-4-one] came in with an EC50 of 1.67 µM.
In the case of `O=C(CS(=O)(=O)c1ccccc1)Nc1ncc([N+](=O)[O-])s1` [2-(benzenesulfonyl)-N-(5-nitro-1,3-thiazol-2-yl)acetamide], the concentration for a half-maximal effect (EC50) was > 300 µM.
As for `COc1ccc2occ(C(=O)c3coc4ccc(O)c(CN(C)C)c34)c2c1` [[4-[(dimethylamino)methyl]-5-oxidanyl-1-benzofuran-3-yl]-(5-methoxy-1-benzofuran-3-yl)methanone;hydrochloride], the concentration for a half-maximal effect (EC50) stood at 1.99 µM. In other words, the single-digit micromolar range.
As to `Fc1ccc(-c2nnc(SCc3cccnc3)o2)cc1` [2-(4-fluorophenyl)-5-(pyridin-3-ylmethylsulfanyl)-1,3,4-oxadiazole], it took 75.5 µM to reach a half-maximal effect (EC50).
`COCc1c(C(=O)NN=Cc2ccncc2)nnn1-c1nonc1N` [MLS001194772]: the midpoint of the response, the EC50, lay at 40.1 µM. This EC50 lies about 1.9-fold lower than the previous one.
For the molecule `COc1ccc2c(c1)-c1c(sn(-c3ccc(OC)c(OC)c3)c1=S)C(C)(C)N2`, the EC50 was > 300 µM.
For `O=C(O)c1ccccc1Nc1ccnc(C(F)(F)F)c1` [2-[[2-(trifluoromethyl)-4-pyridinyl]amino]benzoic acid], the EC50 is > 300 µM.
As for `O=C(O)COCC(=O)N1CCN(C(c2ccccc2)c2ccccc2)CC1` [2-[2-(4-benzhydrylpiperazino)-2-oxoethoxy]acetic acid], the figure is > 300 µM.
As for `COc1ccc(CN(CC(=O)NCc2ccc(F)cc2)C(=O)CCC(=O)Nc2ccccn2)cc1` [N-[(4-Fluoro-benzylcarbamoyl)-methyl]-N-(4-methoxy-benzyl)-N'-pyridin-2-yl-succinamide], the EC50 is > 300 µM.
As for `CC(=O)Oc1cc(C)cc2oc(=O)cc(-c3ccccc3)c12`, the half-maximal effective concentration (EC50) is > 300 µM.
As for `COc1ccc(C2C3=C(CC(C)(C)CC3=O)N=C(C)C2C#N)cc1` (stereo not given) [4-(4-methoxyphenyl)-2,7,7-trimethyl-5-oxidanylidene-1,4,6,8-tetrahydroquinoline-3-carbonitrile], the figure is > 300 µM; as for `O=C(O)c1ccccc1NC(=O)c1ccccc1Nc1ccccc1` [2-[(2-phenylazanylphenyl)carbonylamino]benzoic acid], > 300 µM; as for `CCOC(=O)c1ccc(/N=c2\sc(C(=O)OC)cc(=O)n2Cc2ccco2)cc1` [methyl 2-(4-ethoxycarbonylphenyl)imino-3-(furan-2-ylmethyl)-4-oxidanylidene-1,3-thiazine-6-carboxylate], > 300 µM.
Turning to `C=CCOc1ccc(CN=Nc2ccccn2)cc1OC` [N-[(3-methoxy-4-prop-2-enoxyphenyl)methylideneamino]pyridin-2-amine], the half-maximal effective concentration (EC50) was > 300 µM.
For the molecule `CC1(C)CC(=O)C2C(=Nc3ncnn3C2c2cccs2)C1` (stereo not given) [SMR000291528], the EC50 is 57.1 µM.
As to `CCC(=O)n1nc(-c2ccc(OC)cc2)nc1N` [MLS000043495], the half-maximal effective concentration (EC50) is > 300 µM.
Turning to `O=C(CSc1nnc(CNC(=O)c2cccc(C(F)(F)F)c2)o1)NC1CCCCC1`, the EC50 is > 300 µM.
For the molecule `O=C(Nc1cccc(Cl)c1)Nc1ccnc(-c2cccnc2)n1` [SMR000337179], the EC50 is > 300 µM.

A word on the EC50: it is the concentration giving half of the maximal effect.
